The results in this text go back to patent US20130225548A1, “Pyridine Derivative and Medicinal Agent” (NIPPON SHINYAKU CO., LTD., priority 2010, published 2013).

Structures can show the parent of a compound that is named as a salt.

For the assay, the target named is T1, Syk tyrosine kinase (Homo sapiens, UniProt P43405).
T1 construct: purchased Carna Biosciences, Inc
In words: Test for Syk tyrosine kinase inhibitory activity (ELISA). The conditions noted are these: Syk tyrosine kinase (Carna Biosciences), 25 μM ATP in substrate solution, 30° C. 1 hour, n=2; read-out: Evaluation (IC50, concentration inhibiting the tyrosine kinase activity at 50%). In kind it is biochemical. In short, it runs like this:
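Syk kinase (0.025 nM stock before addition) with 625 nM biotinylated peptide and 25 μM ATP (substrate-solution levels) in Tris pH 7.5, MgCl2, DTT; 1 h at 30 °C on streptavidin plates. Phosphotyrosine detected by HRP anti-pTyr antibody, TMB, A450; IC50 by non-linear regression.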
On the technique in general: In an ELISA, binding on a coated surface is turned into a signal by an enzyme label.
With `CCOC(=O)CCn1cnc2cc(-c3cc(C4CC4)cc(Nc4cc(C#N)ccn4)n3)ccc21` [Example 123, ethyl 3-(5-{6-[(4-cyanopyridin-2-yl)amino]-4-cyclopropylpyridin-2-yl}-1H-benzimidazol-1-yl)propanonate hydrochloride], the IC50 fell in the range of 50 to 500 nM.
Next, `CN(C)C(=O)CCn1cnc2ccc(-c3cc(C4CC4)cc(Nc4cc(C#N)ccn4)n3)cc21` [Example 125, 3-(6-{6-[(4-cyanopyridin-2-yl)amino]-4-cyclopropylpyridin-2-yl}-1H-benzimadazol-1-yl)-N,N-dimethylpropanamide hydrochloride]: 50 to 500 nM; `COC(=O)CCn1cnc2ccc(-c3cc(C4CC4)cc(Nc4cc(C#N)ccn4)n3)cc21` [Example 126, methyl 3-(6-{6-[(4-cyanopyridin-2-yl)amino]-4-cyclopropylpyridin-2-yl}1H-benzimidazol-1-yl)propanonate hydrochloride]: 50 to 500 nM.
Next, `N#Cc1ccnc(Nc2cc(C3CC3)cc(-c3ccc4ncn(CCCCO)c4c3)n2)c1` [Example 127, 2-({4-cyclopropyl-6-[1-(4-hydroxybutyl)-1H-benzimidaxol-6-yl]pyridin-2-yl}amino)pyridine-4-carbonitrile hydrochloride]: 5 to 50 nM.
Take `N#Cc1ccnc(Nc2cc(C3CC3)cc(-c3ccc4c(c3)ncn4CCC(N)=O)n2)c1` [Example 129, 3-(5-{6-[(4-cyanopyridin-2-yl)amino]-4-cyclopropylpyridin-2-yl}-1H-benzimidazol-1-yl)propanamide hydrochloride]: the IC50 lay within 5 to 50 nM.
Take `N#Cc1ccnc(Nc2cc(C3CC3)cc(-c3ccc4ncn(Cc5cccnc5)c4c3)n2)c1` [Example 130, 2-({4-cyclopropyl-6-[1-(pyridin-3-ylmethyl)-1H-benzimidazol-6-yl]pyridin-2-yl}amino)pyridine-4-carbonitrile hydrochloride]: the IC50 was in the range of 50 to 500 nM.
In the case of `CN(C)C(=O)CCn1cnc2cc(-c3cc(C4CC4)cc(Nc4cc(C#N)ccn4)n3)ccc21` [Example 131, 3-(5-{6-[(4-cyanopyridin-2-yl)amino]-4-cyclopropylpyridin-2-yl}-1H-benzimidazol-1-yl)-N,N-dimethylproanamide hydrochloride] it was 50 to 500 nM; in that of `CNC(=O)CCn1cnc2cc(-c3cc(C4CC4)cc(Nc4cc(C#N)ccn4)n3)ccc21` [Example 132, 3-(5-{6-[(4-cyanopyridin-2-yl)amino]-4-cyclopropylpyridin-2-yl}-1H-benzimidazol-1-yl)-N-methylpropanamide hydrochloride], 50 to 500 nM; in that of `N#Cc1ccnc(Nc2cc(C3CC3)cc(-c3ccc4ncn(Cc5ccncc5)c4c3)n2)c1` [Example 133, 2-({4-cyclopropyl-6-[1-(pyridin-4-ylmethyl)-1H-benzimidazol-6-yl]pyridin-2-yl}amino)pyridine-4-carbonitrile hydrochloride], 5 to 50 nM.
Next, `N#CCCn1cnc2cc(-c3cc(C4CC4)cc(Nc4cc(C#N)ccn4)n3)ccc21` [Example 134, 2-({6-[1-(2-cyanoethyl)-1H-benzimidazol-5-yl]-4-cyclopropylpyridin-2-yl}amino)pyridine-4-carbonitrile hydrochloride]: 5 to 50 nM; `N#Cc1ccnc(Nc2cc(C3CC3)cc(-c3ccc4ncn(C5(CO)CCCCC5)c4c3)n2)c1` [Example 135, 2-[(4-cyclopropyl-6-(1-[1-(hydroxymethyl)cyclohexyl]-1H-benzimidazol-6-yl)pyridin-2-yl)amino]pyridine-4-carbonitrile hydrochloride]: 5 to 50 nM; `N#Cc1ccnc(Nc2cc(C3CC3)cc(-c3ccc4ncn(C5CCC(F)(F)CC5)c4c3)n2)c1` [Example 136, 2-({4-cyclopropyl-6-[1-(4,4-difluorocyclohexyl)-1H-benzimidazol-6-yl]pyridine-2-yl}amino)pyridine-4-carbonitrile hydrochloride]: 50 to 500 nM.
In the case of `N#Cc1ccnc(Nc2cc(C3CC3)cc(-c3ccc4c(c3)ncn4Cc3ccccc3)n2)c1` [Example 137, 2-{[6-(1-benzyl-1H-benzimidazol-5-yl)-4-cyclopropylpyridin-2-yl]amino}pyridine-4-carbonitrile hydrochloride] it was 50 to 500 nM.
Consider `CO[C@H]1CC[C@H](n2cnc3ccc(-c4cc(C5CC5)cc(Nc5cc(C#N)ccn5)n4)cc32)CC1` [Example 138, 2-({4-cyclopropyl-6-[1-(trans-4-methoxycyclohexyl)-1H-benzimidazol-6-yl]pyridin-2-yl}amino)pyridine-4-carbonitrile hydrochloride], for which the IC50 fell in the range of 50 to 500 nM.
In the case of `N#Cc1ccnc(Nc2cc(C3CC3)cc(-c3ccc4ncn(C5CCOCC5)c4c3)n2)c1` [Example 139, 2-({4-cyclopropyl-6-[1-(tetrahydro-2H-pyran-4-yl)-1H-benzimidazol-6-yl]pyridin-2-yl}amino)pyridine-4-carbonitrile hydrochloride] it was 5 to 50 nM.
In the case of `N#Cc1ccnc(Nc2cc(C3CC3)cc(-c3ccc4ncn(C5CCCC5O)c4c3)n2)c1` (stereo not drawn) [Example 140, 2-[(4-cyclopropyl-6-{1-[trans-2-hydroxycyclopenyl]-1H-benzimidazol-6-yl}pyridine-2-yl)amino]pyridine-4-carbonitrile hydrochloride] it was 5 to 50 nM.
Take `CCn1cnc2ccc(-c3cc(C4CC4)cc(Nc4cc(C#N)ccn4)n3)cc21` [Example 142, 2-{[4-cyclopropyl-6-(1-ethyl-1H-benzimidazol-6-yl)pyridin-2-yl]amino}pyridine-4-carbonitrile hydrochloride]: the IC50 fell in the range of 50 to 500 nM.
In the case of `N#Cc1ccnc(Nc2cc(C3CC3)cc(-c3ccc4ncn(C(CO)CO)c4c3)n2)c1` [Example 143, 2-({4-cyclopropyl-6-[1-(1,3-dihydroxypropan-2-yl)-1H-benzimidazol-6-yl]pyridin-2-yl}amino)pyridine-4-carbonitrile hydrochloride] it was 5 to 50 nM.
Next, `CC(C)(O)Cn1cnc2ccc(-c3cc(C4CC4)cc(Nc4cc(C#N)ccn4)n3)cc21` [Example 144, 2-({4-cyclopropyl-6-[1-(2-hydroxy-2-methylpropyl)-1H-benzimidazol-6-yl]pyridin-2-yl}amino)pyridine-4-carbonitrile hydrochloride]: 50 to 500 nM; `N#Cc1ccnc(Nc2cc(C3CC3)cc(-c3ccc4ncn([C@H]5CC[C@@H](O)CC5)c4c3)n2)c1` [Example 145, 2-({4-cyclopropyl-6-[1-(cis-4-hydroxycyclohexyl)-1H-benzimidazol-6-yl]pyridin-2-yl}amino)pyridine-4-carbonitrile hydrochloride]: 5 to 50 nM.
Next, `N#Cc1ccnc(Nc2cc(C3CC3)cc(-c3ccc4c(c3)ncn4CCO)n2)c1` [Example 147, 2-({4-cyclopropyl-6-[1-(2-hydroxyethyl)-1H-benzimidazol-5-yl]pyridin-2-yl}amino)pyridine-4-carbonitrile hydrochloride]: 50 to 500 nM.
On to `COCCn1cnc2cc(-c3cc(C4CC4)cc(Nc4cc(C#N)ccn4)n3)ccc21` [Example 148, hydrochloride], for which the IC50 lay within 50 to 500 nM.
In the case of `CCn1cnc2cc(-c3cc(C4CC4)cc(Nc4cc(C#N)ccn4)n3)ccc21` [Example 149, 2-{[4-cyclopropyl-6-(1-ethyl-1H-benzimidazol-5-yl)pyridin-2-yl]amino}pyridine-4-carbonitrile hydrochloride] it was 50 to 500 nM.
